Data taken from PMC6042793 (PLoS ONE, 2018).

Experiments:
[1] = test system: sialidase activity of A/Memphis/1/1971 (H3N2); format: biochemical, influenza A virus (H3N2); conditions: pH 6.5
[2] = biological target: MuV sialidase activity (Mumps virus genotype B, UniProt P11235); format: biochemical
[3] = test system: sialidase activity of A/Shizuoka/17/2016 (H1N1pdm); format: biochemical, influenza A virus (H1N1pdm); conditions: pH 6.5
[4] = biological target: S. pneumoniae sialidase activity (Streptococcus pneumoniae, UniProt P62575); format: biochemical; set-up: key to Test result in the BTP3-based filter method in the presence of NAI: -, not detected; conditions: for NAI susceptibility in the BTP3-based filter method (fluorescence in the presence of NAI): pH 6.5, 56°C 15 min
Chain of S. pneumoniae sialidase activity (P62575 54-1035): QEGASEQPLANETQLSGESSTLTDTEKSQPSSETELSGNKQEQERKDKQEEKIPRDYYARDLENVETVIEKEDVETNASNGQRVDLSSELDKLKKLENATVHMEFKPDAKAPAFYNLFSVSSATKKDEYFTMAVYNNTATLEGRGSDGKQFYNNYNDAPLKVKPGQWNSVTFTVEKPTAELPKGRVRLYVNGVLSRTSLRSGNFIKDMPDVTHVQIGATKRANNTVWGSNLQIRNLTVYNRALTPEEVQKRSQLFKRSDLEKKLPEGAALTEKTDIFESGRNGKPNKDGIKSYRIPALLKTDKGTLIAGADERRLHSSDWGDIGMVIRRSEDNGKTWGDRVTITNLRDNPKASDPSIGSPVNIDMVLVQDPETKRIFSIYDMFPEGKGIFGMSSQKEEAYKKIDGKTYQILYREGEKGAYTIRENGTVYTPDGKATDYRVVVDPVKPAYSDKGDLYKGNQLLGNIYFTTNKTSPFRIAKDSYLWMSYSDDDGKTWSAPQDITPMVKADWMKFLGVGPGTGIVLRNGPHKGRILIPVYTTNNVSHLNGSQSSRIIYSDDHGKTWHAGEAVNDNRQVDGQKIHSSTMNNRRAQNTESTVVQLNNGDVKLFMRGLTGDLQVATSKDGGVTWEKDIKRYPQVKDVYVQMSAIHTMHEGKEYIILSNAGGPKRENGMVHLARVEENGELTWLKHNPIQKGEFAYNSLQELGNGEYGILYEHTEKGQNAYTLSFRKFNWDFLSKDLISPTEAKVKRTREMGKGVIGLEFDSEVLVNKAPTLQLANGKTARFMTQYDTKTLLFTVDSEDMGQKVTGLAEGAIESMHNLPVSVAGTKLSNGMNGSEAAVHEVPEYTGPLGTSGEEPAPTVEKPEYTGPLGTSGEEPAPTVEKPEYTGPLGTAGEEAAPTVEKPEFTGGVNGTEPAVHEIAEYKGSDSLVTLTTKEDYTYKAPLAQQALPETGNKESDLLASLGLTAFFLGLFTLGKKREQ

[5] = test system: sialidase activity of A/Shizuoka/19/2016 (H1N1pdm); format: biochemical, influenza A virus (H1N1pdm); conditions: pH 6.5
[6] = biological target: sialidase activity of B/Lee/1940 (Influenza B virus, UniProt P03474); format: biochemical; conditions: pH 6.5
Chain of sialidase activity of B/Lee/1940 (P03474 whole entry): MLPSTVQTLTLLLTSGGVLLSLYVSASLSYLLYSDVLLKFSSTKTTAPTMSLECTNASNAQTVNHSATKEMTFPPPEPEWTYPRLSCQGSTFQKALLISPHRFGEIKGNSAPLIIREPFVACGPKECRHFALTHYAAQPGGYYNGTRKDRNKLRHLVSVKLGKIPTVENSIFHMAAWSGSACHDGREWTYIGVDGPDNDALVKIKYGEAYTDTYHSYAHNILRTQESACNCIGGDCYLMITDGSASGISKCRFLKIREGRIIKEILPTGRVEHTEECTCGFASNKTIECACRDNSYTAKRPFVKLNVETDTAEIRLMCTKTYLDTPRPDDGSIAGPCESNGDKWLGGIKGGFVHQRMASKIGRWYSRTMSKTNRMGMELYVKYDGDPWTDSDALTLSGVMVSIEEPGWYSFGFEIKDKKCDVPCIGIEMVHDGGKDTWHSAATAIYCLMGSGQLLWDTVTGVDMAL

[7] = biological target: sialidase activity of A/Puerto Rico/8/1934 (H1N1) (Influenza A virus, UniProt P03468); format: biochemical; conditions: pH 6.5
Chain of sialidase activity of A/Puerto Rico/8/1934 (H1N1) (P03468 whole entry, looked up): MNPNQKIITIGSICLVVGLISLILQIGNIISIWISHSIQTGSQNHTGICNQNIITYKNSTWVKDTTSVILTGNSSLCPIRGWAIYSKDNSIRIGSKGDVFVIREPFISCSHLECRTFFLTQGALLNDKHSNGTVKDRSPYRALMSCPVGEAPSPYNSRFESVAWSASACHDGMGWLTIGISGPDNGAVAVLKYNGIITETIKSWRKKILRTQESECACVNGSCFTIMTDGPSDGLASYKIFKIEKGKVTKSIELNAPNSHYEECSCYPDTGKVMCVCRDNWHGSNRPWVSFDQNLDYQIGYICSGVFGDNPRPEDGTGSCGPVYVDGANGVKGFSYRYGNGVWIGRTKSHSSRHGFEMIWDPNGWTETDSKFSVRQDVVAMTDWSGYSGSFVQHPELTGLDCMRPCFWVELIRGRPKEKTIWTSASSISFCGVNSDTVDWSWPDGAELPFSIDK

Chain of MuV sialidase activity (P11235 whole entry): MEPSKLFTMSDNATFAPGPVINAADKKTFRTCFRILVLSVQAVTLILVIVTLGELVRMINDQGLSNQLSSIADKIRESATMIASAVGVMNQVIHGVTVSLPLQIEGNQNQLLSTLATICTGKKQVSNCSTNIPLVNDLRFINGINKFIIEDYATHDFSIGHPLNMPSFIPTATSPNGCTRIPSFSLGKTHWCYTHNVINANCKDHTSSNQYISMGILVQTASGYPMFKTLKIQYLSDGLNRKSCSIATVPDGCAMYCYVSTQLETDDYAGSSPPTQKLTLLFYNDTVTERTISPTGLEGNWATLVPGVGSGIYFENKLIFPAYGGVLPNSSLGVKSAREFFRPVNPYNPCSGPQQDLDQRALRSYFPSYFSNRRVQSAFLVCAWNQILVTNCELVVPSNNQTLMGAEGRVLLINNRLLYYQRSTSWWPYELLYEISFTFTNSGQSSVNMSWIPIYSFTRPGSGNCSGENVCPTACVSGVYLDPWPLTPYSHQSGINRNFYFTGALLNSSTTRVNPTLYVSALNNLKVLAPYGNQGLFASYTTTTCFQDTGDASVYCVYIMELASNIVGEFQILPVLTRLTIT

| SMILES | BTP3 fluorescence on the membrane in the presence of NAI [1] | Test result in the BTP3-based filter method in the presence of NAI [2] | BTP3 fluorescence on the membrane in the presence of NAI [3] | Test result in the BTP3-based filter method in the presence of NAI [4] | NAI susceptibility in the BTP3-based filter method (fluorescence in the presence of NAI) [4] | BTP3 fluorescence on the membrane in the presence of NAI [5] | BTP3 fluorescence on the membrane in the presence of NAI [6] | BTP3 fluorescence on the membrane in the presence of NAI [7] |
| --- | --- | --- | --- | --- | --- | --- | --- | --- |
| CC(=O)N[C@H]1[C@H]([C@H](O)[C@H](O)CO)OC(C(=O)O)=C[C@@H]1N=C(N)N [ZV, zanamivir] | not observed | Positive | not observed | Positive | showed fluorescence | not observed |  |  |
| CCC(CC)[C@H](NC(C)=O)[C@@H]1[C@H](O)[C@@H](C(=O)O)C[C@H]1N=C(N)N [PV, peramivir] | not observed | Positive | not observed | Positive | showed fluorescence | not observed | not observed | not observed |
| CCOC(=O)C1=C[C@@H](OC(CC)CC)[C@H](NC(C)=O)[C@@H](N)C1 [OV, oseltamivir] | not observed | Positive | not observed | - | susceptible | not observed | not observed | not observed |
| [H]/N=C(\N)N[C@H]1C=C(C(=O)O)O[C@@H]([C@H](OC)[C@H](O)CO)[C@@H]1NC(C)=O [LV, laninamivir] | not observed | Positive | not observed | Positive | showed fluorescence | not observed | not observed | not observed |
